# Test results: patent US11957684B2, “Treatment of heavy menstrual bleeding associated with uterine fibroids” (Sumitomo Pharma Switzerland GmbH, priority 2016, dated 2024)
# Values joined by “and” are separate entries in the source; they are usually repeats but may differ in a detail not shown here. Equal values may be shown once. Read-outs that look alike come from different tables or passages of the source.
# Tested on: endometriosis-associated pain
# Type: in vivo, human
# Procedure: Subjects assessed and recorded their own quality of life (QOL) using the EHP-30 once a month during the study visit. As used in the examples, the VAS score was evaluated using a 100 mm scale. For pain intensity, the scale was anchored by “no pain” (score of 0) and “pain as bad as you can imagine” (score of 100). […] The above items were evaluated using a patient diary that was distributed by the sponsor. Subjects filled out the patient diary every day during the treatment period or until early termination. If taking prohibited analgesics, subjects recorded this fact in the patient diary along with the accompanying pain symptoms before use of analgesics. As used in the examples, pain during menstruation and pelvic pain unrelated to menstruation were evaluated using scores on the M-B&B and B&B. The M-B&B scores were recorded by subjects on the patient diary supplied by the sponsor. Subjects filled out the patient diary every day during the treatment period or until early termination. If taking prohibited analgesics, subjects recorded this fact in the patient diary along with the accompanying pain symptoms before use of analgesics. The investigator or subinvestigator assessed each patient's pain through interviews and filled out a B&B once a month. The items that were assessed are shown below. The M-B&B score included: dysmenorrhea (severe, moderate, mild, no pain, or no menstruation); pelvic pain (severe, moderate, mild, or no pain); deep dyspareunia (severe, moderate, mild, no pain, or no intercourse). The B&B score included: dysmenorrhea (severe, moderate, mild, none, or not applicable); dyspareunia (severe, moderate, mild, none, or not applicable); pelvic pain (severe, moderate, mild, or none); pelvic tenderness (severe, moderate, mild, or none); and induration (severe, moderate, mild, or none). As used in the examples, the EHP-30 score was obtained by subjects assessing and recording their own QOL using the EHP-30 questionnaire.
structure (smiles),measurement,setting,value
"CONC(=O)Nc1ccc(-c2sc3c(c2CN(C)C)c(=O)n(-c2ccc(OC)nn2)c(=O)n3Cc2c(F)cccc2F)cc1 [Compound 1, N-(4-(1-(2,6-difluorobenzyl)-5-((dimethylamino)methyl)-3-(6-methoxy-3-pyridazinyl)-2,4-dioxo-1,2,3,4-tetrahydrothieno[2,3-d]pyrimidin-6-yl)phenyl)-N′-methoxyurea]","change from baseline in mean VAS, dysmenorrhea","10 mg, Day 1-28",−10.657±17.0824 mm
same,"change from baseline in mean VAS, dyspareunia","10 mg, Day 1-28",1.642±10.6212 mm
same,"change from baseline in mean VAS, pelvic pain","10 mg, Day 1-28",−4.606±7.1304 mm
same,"mean VAS score, dysmenorrhea","10 mg, Day 1-28",17.556±17.0427 mm
same,"mean VAS score, dyspareunia","10 mg, Day 1-28",9.608±15.4027 mm
same,"mean VAS score, pelvic pain","10 mg, Day 1-28",9.988±10.3249 mm
same,"change from baseline in mean VAS, dysmenorrhea","10 mg, Day 57-84",−14.747±16.8648 mm
same,"change from baseline in mean VAS, dyspareunia","10 mg, Day 57-84",−1.033±12.2047 mm
same,"change from baseline in mean VAS, pelvic pain","10 mg, Day 57-84",−6.282±9.1659 mm
same,"mean VAS score, dysmenorrhea","10 mg, Day 57-84",13.568±15.5954 mm
same,"mean VAS score, dyspareunia","10 mg, Day 57-84",10.110±18.5404 mm
same,"mean VAS score, pelvic pain","10 mg, Day 57-84",8.400±10.1329 mm
same,"change from baseline in mean VAS, dysmenorrhea","10 mg, Day 141-168",−15.191±17.6754 mm
same,"change from baseline in mean VAS, dyspareunia","10 mg, Day 141-168",−4.124±10.5641 mm
same,"change from baseline in mean VAS, pelvic pain","10 mg, Day 141-168",−7.872±11.2457 mm
same,"mean VAS score, dysmenorrhea","10 mg, Day 141-168",11.758±15.4431 mm
same,"mean VAS score, dyspareunia","10 mg, Day 141-168",5.550±11.1157 mm
same,"mean VAS score, pelvic pain","10 mg, Day 141-168",6.861±9.2099 mm
same,"change from baseline in EHP-30, control & powerlessness","10 mg, Week 24",−13.97±17.502
same,"change from baseline in EHP-30, emotional well-being","10 mg, Week 24",−8.38±15.918
same,"change from baseline in EHP-30, pain","10 mg, Week 24",−16.98±20.286
same,"change from baseline in EHP-30, social support","10 mg, Week 24",−7.52±10.840
same,"change from baseline in mean B&B score, dysmenorrhea","10 mg, Week 24",−1.0±0.87
same,"change from baseline in mean B&B score, dyspareunia","10 mg, Week 24",−0.3±0.67
same,"change from baseline in mean B&B score, pelvic pain","10 mg, Week 24",−0.8±0.79
same,"change from baseline in mean B&B score, pelvic tenderness","10 mg, Week 24",−0.7±0.83
same,"subjects without pain in B&B score, dysmenorrhea","10 mg, Week 24",27.8%
same,"subjects without pain in B&B score, dyspareunia","10 mg, Week 24",63.9%
same,"subjects without pain in B&B score, pelvic pain","10 mg, Week 24",30.4%
same,"subjects without pain in B&B score, pelvic tenderness","10 mg, Week 24",35.4%
same,"change from baseline in maximum M-B&B score, dysmenorrhea","10 mg, end of treatment",−0.7±1.01
same,"change from baseline in maximum M-B&B score, dyspareunia","10 mg, end of treatment",−0.2±0.69
same,"change from baseline in maximum M-B&B score, pelvic pain","10 mg, end of treatment",−0.7±0.94
same,"change from baseline in maximum VAS, dysmenorrhea","10 mg, end of treatment",−26.4±27.37 mm
same,"change from baseline in maximum VAS, dyspareunia","10 mg, end of treatment",−4.2±16.30 mm
same,"change from baseline in maximum VAS, pelvic pain","10 mg, end of treatment",−24.0±27.54 mm
same,"change from baseline in mean M-B&B score, deep dyspareunia","10 mg, end of treatment",−0.171±0.4683
same,"change from baseline in mean M-B&B score, dysmenorrhea","10 mg, end of treatment",−0.509±0.6675
same,"change from baseline in mean M-B&B score, pelvic pain","10 mg, end of treatment",−0.260±0.3624
same,"change from baseline in mean VAS, dysmenorrhea","10 mg, end of treatment",−15.356±18.0506 mm
same,"change from baseline in mean VAS, dyspareunia","10 mg, end of treatment",−3.454±10.8509 mm
same,"change from baseline in mean VAS, pelvic pain","10 mg, end of treatment",−6.849 mm and −6.849±10.5616 mm
same,change from baseline in mean score of amount of bleeding (0 to 5),"10 mg, end of treatment",−0.529±1.2185
same,change from baseline in proportion of days with usage of pain killer,"10 mg, end of treatment",−6.32±9.817%
same,"change in proportion of days without pain (M-B&B), deep dyspareunia","10 mg, end of treatment",8.32±35.972%
same,"change in proportion of days without pain (M-B&B), dysmenorrhea","10 mg, end of treatment",29.55±42.700%
same,"change in proportion of days without pain (M-B&B), pelvic pain","10 mg, end of treatment",17.18±26.101%
same,"change in proportion of days without pain (VAS), dysmenorrhea","10 mg, end of treatment",29.28±43.277%
same,"change in proportion of days without pain (VAS), dyspareunia","10 mg, end of treatment",9.72±38.401%
same,"change in proportion of days without pain (VAS), pelvic pain","10 mg, end of treatment",17.90±24.924%
same,"mean VAS score, dyspareunia","10 mg, end of treatment",6.218±10.6280 mm
same,"mean VAS score, pelvic pain","10 mg, end of treatment",7.746±9.0900 mm
same,subjects who achieved amenorrhea,"10 mg, end of treatment",22.3%
same,"subjects without pain in M-B&B score, dysmenorrhea","10 mg, end of treatment",27.2%
same,"subjects without pain in M-B&B score, dyspareunia","10 mg, end of treatment",56.0%
same,"subjects without pain in M-B&B score, pelvic pain","10 mg, end of treatment",24.3%
same,"subjects without pain in VAS score, dysmenorrhea","10 mg, end of treatment",27.2%
same,"subjects without pain in VAS score, dyspareunia","10 mg, end of treatment",48.0%
same,"subjects without pain in VAS score, pelvic pain","10 mg, end of treatment",6.8% and 7%
same,"change from baseline in mean VAS, dysmenorrhea","20 mg, Day 1-28",−9.158±16.6375 mm
same,"change from baseline in mean VAS, pelvic pain","20 mg, Day 1-28",−3.962±6.6751 mm
same,"mean VAS score, dysmenorrhea","20 mg, Day 1-28",18.545±19.2141 mm
same,"mean VAS score, dyspareunia","20 mg, Day 1-28",10.809±15.5738 mm
same,"mean VAS score, pelvic pain","20 mg, Day 1-28",11.627±14.7324 mm
same,"change from baseline in mean VAS, dysmenorrhea","20 mg, Day 57-84",−20.689±21.4387 mm
same,"change from baseline in mean VAS, dyspareunia","20 mg, Day 57-84",−0.191±10.6032 mm
same,"change from baseline in mean VAS, pelvic pain","20 mg, Day 57-84",−8.547±13.8568 mm
same,"mean VAS score, dysmenorrhea","20 mg, Day 57-84",6.626±13.5146 mm
same,"mean VAS score, dyspareunia","20 mg, Day 57-84",9.229±16.6530 mm
same,"mean VAS score, pelvic pain","20 mg, Day 57-84",6.675±10.8072 mm
same,"change from baseline in mean VAS, dysmenorrhea","20 mg, Day 141-168",−19.860±19.1617 mm
same,"change from baseline in mean VAS, dyspareunia","20 mg, Day 141-168",−4.012±12.5050 mm
same,"change from baseline in mean VAS, pelvic pain","20 mg, Day 141-168",−8.678±10.6479 mm
same,"mean VAS score, dysmenorrhea","20 mg, Day 141-168",6.132±13.2012 mm
same,"mean VAS score, dyspareunia","20 mg, Day 141-168",3.806±8.9781 mm
same,"mean VAS score, pelvic pain","20 mg, Day 141-168",5.486±9.1562 mm
same,"change from baseline in EHP-30, Self-image","20 mg, Week 24",−10.59±15.256
same,"change from baseline in EHP-30, control & powerlessness","20 mg, Week 24",−20.04±21.880
same,"change from baseline in EHP-30, emotional well-being","20 mg, Week 24",−15.37±17.858
same,"change from baseline in EHP-30, pain","20 mg, Week 24",−20.58±19.650
same,"change from baseline in EHP-30, social support","20 mg, Week 24",−13.44±17.055
same,"change from baseline in mean B&B score, dysmenorrhea","20 mg, Week 24",−1.5±0.94
same,"change from baseline in mean B&B score, dyspareunia","20 mg, Week 24",−0.4±0.70
same,"change from baseline in mean B&B score, pelvic pain","20 mg, Week 24",−0.9±0.85
same,"change from baseline in mean B&B score, pelvic tenderness","20 mg, Week 24",−0.8±0.79
same,"subjects without pain in B&B score, dysmenorrhea","20 mg, Week 24",64.9%
same,"subjects without pain in B&B score, dyspareunia","20 mg, Week 24",53.6%
same,"subjects without pain in B&B score, pelvic pain","20 mg, Week 24",39.2%
same,"subjects without pain in B&B score, pelvic tenderness","20 mg, Week 24",37.8%
same,"change from baseline in maximum M-B&B score, dysmenorrhea","20 mg, end of treatment",−1.4±1.12
same,"change from baseline in maximum M-B&B score, dyspareunia","20 mg, end of treatment",−0.3±0.59
same,"change from baseline in maximum M-B&B score, pelvic pain","20 mg, end of treatment",−0.7±0.79
same,"change from baseline in maximum VAS, dyspareunia","20 mg, end of treatment",−7.0±15.29 mm
